In the supplement of paper PMC10307832:

Assays:
Assay in all cases: relative viability (nuclei count vs DMSO), 5 days (fraction); higher = more cells survive
Tipifarnib + Alpelisib = compound: Cn1cncc1[C@@](N)(c1ccc(Cl)cc1)c1ccc2c(c1)c(-c1cccc(Cl)c1)cc(=O)n2C [Tipifarnib] + Cc1nc(NC(=O)N2CCC[C@H]2C(N)=O)sc1-c1ccnc(C(C)(C)C(F)(F)F)c1 [Alpelisib] (partner 2 µM)
In short: (§1)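 Lung cancer cell lines in 1536-well plates were dosed by pin tool the day after seeding, either with one drug alone or with a fixed anchor-drug dose plus five library-drug doses (not always all listed) in √10 steps. After 5 days, cells were fixed and their nuclei stained in one step (final 0.05% Triton X-100, 1% formaldehyde, 1 ug/ml Hoechst), then counted on 4× images. Relative viability is the nuclei count in treated wells divided by that in vehicle wells. Values are medians of duplicate plates.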

Tipifarnib + Palbociclib = compound: Cn1cncc1[C@@](N)(c1ccc(Cl)cc1)c1ccc2c(c1)c(-c1cccc(Cl)c1)cc(=O)n2C [Tipifarnib] + CC(=O)c1c(C)c2cnc(Nc3ccc(N4CCNCC4)cn3)nc2n(C2CCCC2)c1=O [Palbociclib] (partner 0.5 µM)
In short: as §1

Tipifarnib + Bortezomib = compound: Cn1cncc1[C@@](N)(c1ccc(Cl)cc1)c1ccc2c(c1)c(-c1cccc(Cl)c1)cc(=O)n2C [Tipifarnib] + CC(C)C[C@H](NC(=O)[C@H](Cc1ccccc1)NC(=O)c1cnccn1)B(O)O [Bortezomib] (partner 0.002 µM)
In short: as §1

Tipifarnib + Dasatinib = compound: Cn1cncc1[C@@](N)(c1ccc(Cl)cc1)c1ccc2c(c1)c(-c1cccc(Cl)c1)cc(=O)n2C [Tipifarnib] + Cc1nc(Nc2ncc(C(=O)Nc3c(C)cccc3Cl)s2)cc(N2CCN(CCO)CC2)n1 [Dasatinib] (partner 0.075 µM)
In short: as §1

Row | Cell Line | relative viability (Tipifarnib + Alpelisib; first compound 0.01 µM) | relative viability (Tipifarnib + Alpelisib; first compound 0.03162 µM) | relative viability (Tipifarnib + Alpelisib; first compound 0.1 µM) | relative viability (Tipifarnib + Alpelisib; first compound 0.3162 µM) | relative viability (Tipifarnib + Alpelisib; first compound 1 µM) | relative viability (Tipifarnib + Palbociclib; first compound 0.01 µM) | relative viability (Tipifarnib + Palbociclib; first compound 0.03162 µM) | relative viability (Tipifarnib + Palbociclib; first compound 0.1 µM) | relative viability (Tipifarnib + Palbociclib; first compound 0.3162 µM) | relative viability (Tipifarnib + Palbociclib; first compound 1 µM) | relative viability (Tipifarnib + Bortezomib; first compound 0.01 µM) | relative viability (Tipifarnib + Bortezomib; first compound 0.03162 µM) | relative viability (Tipifarnib + Bortezomib; first compound 0.1 µM) | relative viability (Tipifarnib + Bortezomib; first compound 0.3162 µM) | relative viability (Tipifarnib + Bortezomib; first compound 1 µM) | relative viability (Tipifarnib + Dasatinib; first compound 0.01 µM) | relative viability (Tipifarnib + Dasatinib; first compound 0.03162 µM) | relative viability (Tipifarnib + Dasatinib; first compound 0.1 µM) | relative viability (Tipifarnib + Dasatinib; first compound 0.3162 µM) | relative viability (Tipifarnib + Dasatinib; first compound 1 µM)
1 | NCI-H441 | 0.712 | 1.06 | 0.54 | 0.307 | 0.379 | 0.197 | 0.161 | 0.188 | 0.144 | 0.164 | 0.685 | 0.2 | 0.432 | 0.207 | 0.185 | 0.592 | 0.516 | 0.484 | 0.396 | 0.277
2 | NCI-H1793 | 0.811 | 0.691 | 0.565 | 0.453 | 0.396 | 0.29 | 0.258 | 0.228 | 0.213 | 0.233 | – | – | – | – | – | 0.455 | 0.43 | 0.34 | 0.246 | 0.243
3 | NCI-H23 | 0.717 | 0.791 | 0.517 | 0.454 | 0.372 | 0.577 | 0.397 | 0.405 | 0.35 | 0.341 | 1.27 | 0.751 | 0.636 | 0.36 | 0.25 | 0.76 | 0.711 | 0.667 | 0.473 | 0.282
4 | HARA | 0.924 | 0.792 | 0.781 | 0.662 | 0.653 | 0.32 | 0.32 | 0.238 | 0.217 | 0.265 | 1.16 | 0.938 | 1.26 | 1.12 | 0.55 | 0.255 | 0.366 | 0.296 | 0.299 | 0.168
5 | NCI-H1792 | 0.699 | 0.643 | 0.345 | 0.293 | 0.281 | 0.642 | 0.621 | 0.522 | 0.512 | 0.479 | 0.967 | 0.877 | 0.661 | 0.621 | 0.432 | 1.01 | 0.821 | 0.571 | 0.524 | 0.484
6 | NCI-H1703 | 0.267 | 0.275 | 0.147 | 0.272 | 0.21 | – | – | – | – | – | 0.296 | 0.262 | 0.304 | 0.195 | 0.186 | – | – | – | – | –
7 | NCI-H2342 | – | – | – | – | – | 0.535 | 0.493 | 0.555 | 0.499 | 0.488 | – | – | – | – | – | 0.332 | 0.337 | 0.272 | 0.331 | 0.267
8 | CAL-12T | 1.33 | 0.851 | 0.555 | 0.417 | 0.693 | 0.512 | 0.302 | 0.377 | 0.21 | 0.13 | 0.791 | 0.75 | 0.714 | 0.719 | 0.318 | 0.256 | 0.287 | 0.519 | 0.198 | 0.18
9 | NCI-H727 | 0.683 | 0.516 | 0.569 | 0.496 | 0.513 | 0.693 | 0.596 | 0.599 | 0.652 | 0.615 | 0.893 | 0.802 | 0.856 | 0.656 | 0.607 | 0.443 | 0.422 | 0.421 | 0.503 | 0.62
10 | NCI-H2085 | 0.924 | 0.709 | 0.605 | 0.599 | 0.533 | 0.492 | 0.431 | 0.472 | 0.413 | 0.506 | 1.15 | 0.729 | 0.695 | 0.601 | 0.72 | 0.296 | 0.264 | 0.262 | 0.25 | 0.288
11 | NCI-H1395 | 0.92 | 1.03 | 0.894 | 0.693 | 0.6 | 0.646 | 0.617 | 0.591 | 0.503 | 0.5 | – | – | – | – | – | 0.421 | 0.348 | 0.342 | 0.34 | 0.381
12 | NCI-H1648 | – | – | – | – | – | 0.253 | 0.304 | 0.279 | 0.285 | 0.45 | – | – | – | – | – | – | – | – | – | –
13 | NCI-H460 | 0.572 | 0.527 | 0.198 | 0.115 | 0.0453 | 0.178 | 0.187 | 0.096 | 0.0611 | 0.0359 | 0.957 | 0.605 | 0.369 | 0.248 | 0.036 | 0.512 | 0.514 | 0.307 | 0.146 | 0.0594
14 | A549 | 0.759 | 0.649 | 0.398 | 0.346 | 0.283 | – | – | – | – | – | – | – | – | – | – | – | – | – | – | –
15 | IA-LM | 0.362 | 0.289 | 0.309 | 0.213 | 0.214 | – | – | – | – | – | 0.354 | 0.407 | 0.28 | 0.292 | 0.265 | – | – | – | – | –
16 | EKVX | 0.895 | 0.883 | 0.83 | 0.595 | 0.652 | 0.396 | 0.362 | 0.35 | 0.281 | 0.284 | 1.13 | 1.01 | 0.903 | 0.699 | 0.607 | 0.543 | 0.613 | 0.512 | 0.508 | 0.641
17 | ChaGo-K-1 | – | – | – | – | – | 0.996 | 0.937 | 0.932 | 0.885 | 0.758 | 0.976 | 1 | 0.954 | 0.978 | 0.53 | 0.622 | 0.56 | 0.589 | 0.525 | 0.324
18 | NCI-H1755 | 0.916 | 0.848 | 0.868 | 0.804 | 0.808 | 0.464 | 0.471 | 0.463 | 0.445 | 0.465 | 0.987 | 0.835 | 0.848 | 0.821 | 0.626 | 0.477 | 0.39 | 0.365 | 0.348 | 0.271
19 | NCI-H2228 | 0.997 | 0.475 | 0.473 | 0.537 | 0.371 | 0.971 | 0.599 | 0.353 | 0.551 | 0.29 | 1.2 | 0.615 | 0.727 | 0.577 | 0.404 | 0.531 | 0.52 | 0.456 | 0.266 | 0.184
20 | NCI-H2087 | 1.17 | 0.635 | 0.3 | 0.371 | 0.406 | 0.212 | 0.233 | 0.23 | 0.11 | 0.193 | 0.705 | 0.418 | 0.375 | 0.276 | 0.39 | 0.764 | 0.405 | 0.289 | 0.264 | 0.21
